These results are taken from patent US5843948A, “Piperazinophenyl- and piperazinophenyloxycarboxylic acid derivatives, and processes and intermediates for their preparation and pharmaceutical compositions comprising them” (Solvay Pharmaceuticals GmbH, priority 1996, dated 1998).

In this experiment the target is T1, purified GP IIb/IIIa fibrinogen receptor from human blood platelets (Homo sapiens, UniProt P05106+P08514).
T1 construct: purified GP IIb/IIIa fibrinogen receptor from human blood platelets; from tissue; host or cells: human blood platelets
T1 sequence (P08514 32-887 limits assumed): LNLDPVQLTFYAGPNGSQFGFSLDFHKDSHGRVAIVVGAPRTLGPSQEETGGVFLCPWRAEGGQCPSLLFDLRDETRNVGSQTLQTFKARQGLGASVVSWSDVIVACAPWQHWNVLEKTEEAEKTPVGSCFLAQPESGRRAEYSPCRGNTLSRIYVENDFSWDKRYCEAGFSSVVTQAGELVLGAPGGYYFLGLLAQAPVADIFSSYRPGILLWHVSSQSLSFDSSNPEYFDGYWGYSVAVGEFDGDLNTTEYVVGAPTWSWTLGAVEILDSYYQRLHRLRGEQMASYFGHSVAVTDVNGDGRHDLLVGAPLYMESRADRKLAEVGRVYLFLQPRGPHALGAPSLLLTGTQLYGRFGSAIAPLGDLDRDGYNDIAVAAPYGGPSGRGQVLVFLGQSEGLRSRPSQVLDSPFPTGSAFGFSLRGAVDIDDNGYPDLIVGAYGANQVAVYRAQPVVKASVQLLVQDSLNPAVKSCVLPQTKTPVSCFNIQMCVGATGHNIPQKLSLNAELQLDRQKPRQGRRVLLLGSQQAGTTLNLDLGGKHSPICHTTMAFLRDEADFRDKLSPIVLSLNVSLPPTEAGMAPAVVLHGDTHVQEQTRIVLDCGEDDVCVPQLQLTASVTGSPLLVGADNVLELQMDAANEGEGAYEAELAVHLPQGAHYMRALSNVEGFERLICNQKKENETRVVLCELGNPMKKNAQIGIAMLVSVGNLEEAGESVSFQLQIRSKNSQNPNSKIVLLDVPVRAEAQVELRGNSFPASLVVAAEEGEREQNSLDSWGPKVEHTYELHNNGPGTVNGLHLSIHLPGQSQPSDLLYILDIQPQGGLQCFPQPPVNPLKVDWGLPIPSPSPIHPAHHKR
T1 sequence (P08514 891-1039 limits assumed): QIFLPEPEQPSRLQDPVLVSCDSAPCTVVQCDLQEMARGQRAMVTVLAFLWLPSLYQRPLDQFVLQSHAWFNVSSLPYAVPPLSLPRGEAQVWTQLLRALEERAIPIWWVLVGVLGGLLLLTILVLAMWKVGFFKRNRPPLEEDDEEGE
T1 sequence (P05106 27-788): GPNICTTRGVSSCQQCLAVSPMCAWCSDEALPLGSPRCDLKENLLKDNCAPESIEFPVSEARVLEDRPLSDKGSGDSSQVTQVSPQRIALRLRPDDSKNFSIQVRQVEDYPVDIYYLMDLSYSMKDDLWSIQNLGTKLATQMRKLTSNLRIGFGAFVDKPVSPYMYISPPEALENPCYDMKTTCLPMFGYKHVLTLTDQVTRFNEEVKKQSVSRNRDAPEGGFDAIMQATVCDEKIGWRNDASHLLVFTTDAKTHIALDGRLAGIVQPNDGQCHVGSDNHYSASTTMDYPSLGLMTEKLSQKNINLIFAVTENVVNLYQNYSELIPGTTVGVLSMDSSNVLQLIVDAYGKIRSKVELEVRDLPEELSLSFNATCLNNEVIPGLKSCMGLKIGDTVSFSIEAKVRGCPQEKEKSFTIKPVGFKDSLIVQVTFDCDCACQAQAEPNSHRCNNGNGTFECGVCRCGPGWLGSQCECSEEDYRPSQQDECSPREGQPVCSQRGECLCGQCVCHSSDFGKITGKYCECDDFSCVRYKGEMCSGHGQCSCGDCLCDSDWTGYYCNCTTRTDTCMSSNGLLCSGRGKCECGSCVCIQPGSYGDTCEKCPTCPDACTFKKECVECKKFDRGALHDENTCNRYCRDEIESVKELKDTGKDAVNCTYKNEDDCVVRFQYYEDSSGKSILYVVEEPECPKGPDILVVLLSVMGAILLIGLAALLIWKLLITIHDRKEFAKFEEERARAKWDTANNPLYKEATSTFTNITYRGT
Description: Inhibition of fibrinogen binding to GP IIb/IIIa, solid phase enzyme immunoassay of the ELISA type (Kouns et al.). The following applies: purified human plasma fibrinogen 20 μg/ml, 37° C., 2 hours, read-out: pIC50 (negative common logarithm of the IC50 for inhibition of the specific fibrinogen binding of GP IIb/IIIa) (converted). Here is the method: The inhibitory action of the substances of the formula I on the fibrinogen binding to the fibrinogen receptor of the blood platelets, the GP IIb/IIIa, was detected in a solid phase enzyme immunoassay of the ELISA type ("Enzyme-Linked Immunosorbent Assay") according to the method described by Kouns et al. (Blood 80 (1992) 2539-2547).
A solution of purified GP IIb/IIIa fibrinogen receptor from human blood platelets (1 μg/ml in phosphate-buffered physiological saline solution, pH 7.4) was applied in portions of 100 μl/sample position to a microtitre plate and allowed to stand at 4° C. for 18 hours. Excess receptor reagent was washed off by a standard wash (3 times 350 μl of wash buffer solution/sample position: 0.01% (v/v) Tween 80 in phosphate-buffered physiological saline solution) and unoccupied residual protein binding sites were occupied by a blocking reagent [300 μl/sample position of an aqueous receptor buffer solution: 20 mmole/liter of tris(hydroxymethyl)aminomethane, 150 mmole/liter of NaCl, 1 mmole/liter of MgCl2, 1 mmole/liter of CaCl2; treated with 5% (w/v) bovine serum albumin (BSA)]. The mixture was incubated at 37° C. for 2 hours and excess blocking reagent was removed.
Purified human plasma fibrinogen [100 μl/sample position of a 20 μg/ml solution in test buffer. Test buffer=receptor buffer mixed with 1% (w/v) BSA] was then added together with the test substance dissolved therein (concentration dependent on the test substance) and incubated at 37° C. for 2 hours. Unbound fibrinogen was removed by standard washing and the incubation was continued for a further hour at room temperature after addition of biotinylated rabbit antibodies against human fibrinogen (100 μl/sample position in optimum use dilution, dissolved in test buffer) . After a further standard wash, horseradish peroxidase-conjugated streptavidin (1:2000, in suitable dilution in test buffer) was added, and the mixture was incubated again at room temperature for one hour, followed by a further standard wash.
Finally, the peroxidase substrate 2,2'-azinodi-(3-ethylbenzothiazolinesulfonate) (abbreviated below as ABTS), (100 μl/sample position of a solution of 0.4 g/liter of ABTS in 0.1 mole/liter of citric acid buffer, adjusted to pH 4 using 0.4 mole/liter of NaH2 PO4 ·2 H2 O), treated with 0.003% (w/v) hydrogen peroxide, was added and the extinction of the mixture was measured at 405 nm at 5 minute intervals for twenty minutes.
The peroxidase activity was determined from the measurements as the increase in the extinction with time. It was used to calculate the total fibrinogen binding and also the non-specific fibrinogen binding. The non-specific fibrinogen binding was determined without addition of the GP IIb/IIIa. The specific fibrinogen binding could be calculated from these two values. The effect of the test substances was expressed in IC50 values, which were obtained by interpolation from concentration-dependent measuring curves. The IC50 is that concentration in μmole/liter at which a test substance inhibits the specific fibrinogen binding of GP IIb/IIIa by 50%. The following Table 1 presents the IC50 values found for the test substance as negative common logarithms, the pIC50 values. The example numbers relate to the subsequent preparation examples.

On to `N=C(N)c1ccc(N2CCN(c3ccc(OCC(=O)O)cc3)CC2)cc1` [Example 2a, 4-[4-(4-Amidinophenyl)-1-piperazinyl]-phenoxyacetic acid], for which the IC50 is 1.58 nM.
Regarding `N=C(N)c1ccc(N2CCN(c3ccc(OCC(=O)O)cc3)CC2)nc1` [Example 6, 4-{4-[2-(5-Amidinopyridyl)]-1-piperazinyl}-phenoxyacetic acid], the IC50 was 1.55 nM.
The value for `COC(=O)COc1ccc(N2CCN(c3ccc(C(=N)N)cn3)CC2)cc1` [Example 7, Methyl 4-{4-[2-(5-amidinopyridyl)]-1-piperazinyl}phenoxyacetate] was 36.3 nM.
For `N=C(N)c1ccc(N2CCN(c3ccc(CCC(=O)O)cc3)CC2)nc1` [Example 10, 3-{4-[4-(2-(5-Amidinopyridyl))-1-piperazinyl]-phenyl}propionic acid] the value was 30.2 nM; for `N=C(N)c1ccc(N2CCN(c3ccc(CCC(=O)O)cc3)CC2)cc1` [Example 12], 28.2 nM.
